{"source": "patent US9676997B2", "about": "“Compositions and methods for stabilizing luminogenic substrates” (Promega Corporation, priority 2014, dated 2017)", "experiment": "Stability of 1.25 mM coelenterazine-h-h in 50% ethanol and 50% propylene glycol with or without 225 mM ATT, HPLC and Arrhenius plots", "format": "physicochemical", "details": "225 mM ATT, over time at different temperatures", "experimental": "The stability of coelenterazine-h-h in the presence and absence of ATT was measured over time at different temperatures. Specifically, 1.25 mM coelenterazine-h-h was present in a solution of 50% ethanol and 50% propylene glycol (i.e., the solution without ATT) or a solution of 50% ethanol and 50% propylene glycol with 225 mM ATT (i.e., the solution with ATT). These two solutions were incubated at −20° C., room temperature (RT), 40° C., or 60° C. and analyzed at 0 days, 1 day, 3 days, 7 days, 15 days, and 30 days.\nFollowing incubation, high performance liquid chromatography (HPLC) was utilized to identify the components of the respective solutions at each time point. Specifically, an Agilent 1100 HPLC instrument was used and equipped with a quaternary pump, thermostatted autosampler and column compartment, and a G1311B diode-array detector. The column used was a Synergi-MAX-RP (Phenomenex, Torrance, Calif.) 100 AÅ 50×4.6 2.5 μm. The run on the HPLC was a gradient run with 0.1% TFA in water and acetonitrile. Absorbance was measured at 262 nanometers (nm). Standards of coelenterazine-h-h and its known degradants were run to confirm both the retention time and absorbance trace. 5 μl of each solution was injected and the retention time of coelenterazine-h-h at room temperature was 5.5 minutes.\nThe results of the HPLC analysis are shown below in Tables 7 and 8 and FIGS. 3A and 3B, in which the values are reported as relative peak area percentage at 262 nm (i.e., the lamba max of the substrate). […] In each of FIGS. 3A and 3B, diamond is 1.25 mM coelenterazine-h-h incubated over time with or without 225 mM ATT, respectively, at −20° C., triangle is 1.25 mM coelenterazine-h-h incubated over time with or without 225 mM ATT, respectively, at room temperature (RT), star is 1.25 mM coelenterazine-h-h incubated over time with or without 225 mM ATT, respectively, at 40° C., and cross is 1.25 mM coelenterazine-h-h incubated over time with or without 225 mM ATT, respectively, at 60° C.\nFrom the HPLC analysis, the half-life of coelenterazine-h-h in the presence of ATT at 60° C. was calculated to be 10 days while the half-life of coelenterazine-h-h in the absence of ATT at 40° C. and 60° C. was calculated to be 27 days and 8 days, respectively (see Table 9 below).\nAdditionally, Arrhenius plots were generated for coelenterazine-h-h in the presence and absence of ATT to calculate the half-life of coelenterazine-h-h at various temperatures. The Arrhenius equation is as follows: […]\nIn FIG. 11, the slope was −10740.9, the intercept was 30.0575, and R^2 was 0.9967.\nIn FIG. 12, the […], and R^2 was 0.9648."}
{"molecule": "Cc1n[nH]c(=S)[nH]c1=O", "note": "[ATT, 6-methyl-3-thioxo-3,4-dihydro-1,2,4-triazin-5(2H)-one]", "values": [{"measurement": "stabilization of coelenterazine-h-h against decomposition", "value": "stabilized coelenterazine-h-h against decomposition over time at different temperatures"}]}
